Measured values: US9517244B2, “Therapeutic combinations for use in neoplasia” (University of Florida Research Foundation, Inc., priority 2011, dated 2016)
Read-outs that look alike come from different tables or passages of the source.

What was measured:
PANC1 = assay: MTT assay, pancreatic cancer cell line; type: cell-based, human; details: PANC1, 48 h, read-out: IC50 of Oxaliplatin
[1] = test system: human parental cancer cells; assay: cell growth inhibition of parental cancer cells; type: cell-based; details: alone, 1.25 μM, 72 h
Experimental: (§1) Cells were treated with 1.25 μM of NSC-30049 and 1.25 μM of OPT either alone or in combination for 72 h. Data are mean±SD of triplicate experiments. […] Cells were treated with 1.25 μM of NSC-30049 and 1.25 μM of OPT either alone or in combination for 72 h. Fold change in gene expression values is shown as mean±SD of three experiments and are normalized to GAPDH gene expression.
(§2) The effect of administration of NSC-30049 in combination with oxaliplatin (OPT) was also examined in human parental cancer cells and colon cancer stem cells (FIG. 9A). Cells were treated with 1.25 μM of NSC-30049 and […] of OPT either alone or in combination for 72 h. Cell growth inhibition was assayed. Data presented are mean±SD of triplicate experiments.

LoVo = assay: MTT assay, MMR-deficient colon cancer cell line; type: cell-based
Experimental: (§3) The use of NSC-30049 as a chemopreventive agent for the treatment of colon cancer was also tested. In one experiment, NSC-30049 in combination with temozolomide was administered to colon cancer cell lines, including mismatch repair (MMR) proficient and MMR deficient cancer cell lines (Table 4). MMR proficient colon cancer cell lines tested included HCT-116+ch3, SW480, and HT29. MMR deficient cancer cell lines tested included HCT-116 and LoVo. Cells were pre-treated for 2 h with […] concentrations of NSC-30049 prior to treatment with temozolomide. After the treatment cells were allowed to grow for 72 hours. The cell growth inhibition was determined by MTT assay. Data presented are the mean±SE of three different estimations. The p value as compared to control of the Student's t-test is given in parenthesis. * p<0.05; ** p<0.01; *** p<0.001. Increasing the concentration of NSC-30049 decreased the IC50 of temozolomide for all cell lines tested, regardless of whether they were MMR proficient or deficient.
(§4) In addition to temozolomide, oxaliplatin is another chemotherapeutic agent used for the treatment of colon cancer. In another experiment, NSC-30049 in combination with oxaliplatin was administered to colon cancer cell lines, including mismatch repair (MMR) proficient and MMR deficient cancer cell lines (Table 5). MMR proficient colon cancer cell lines tested included HCT-116+ch3 and HT29. MMR deficient cancer cell lines tested included HCT-116 and LoVo. Cells were pre-treated with the indicated concentrations of NSC-33049 for 2 h followed by the treatment with different concentrations of oxaliplatin for additional 48 h. The cell growth inhibition was determined by MTT assay. Data presented are the mean±SE of three different estimations. The p value of Student's t-test as compared to the control is given in parenthesis (* p<0.05; ** p<0.01; *** p<0.001). Increasing the concentration of NSC-30049 decreased the IC50 of oxaliplatin for all cell lines tested, regardless of whether they were MMR proficient or deficient.

HCT-116 = assay: MTT assay, MMR-deficient colon cancer cell line; type: cell-based
Experimental: as §3, §4

HCT-116 + ch3 = assay: MTT assay, MMR-proficient colon cancer cell line; type: cell-based
Experimental: as §3, §4

HT29 = assay: MTT assay, MMR-proficient colon cancer cell line; type: cell-based
Experimental: as §3, §4

colon cancer stem cells = assay: cell growth inhibition of colon cancer stem cells; type: cell-based, human; details: alone, 1.25 μM, 72 h
Experimental: as §1, §2

BxPC3 = assay: MTT assay, pancreatic cancer cell line; type: cell-based, human; details: BxPC3, 48 h, read-out: IC50 of Oxaliplatin
SW480 = assay: MTT assay, MMR-proficient colon cancer cell line; type: cell-based; details: Homo sapiens, SW480, 72 h, read-out: IC50 of TMZ
Experimental: as §3

A172 = assay: MTT assay, brain cancer cell line; type: cell-based; details: Homo sapiens, A 172, 120 h, read-out: IC50 of TMZ
Experimental: (§5) The use of NSC-30049 as a chemopreventive agent for the treatment of brain cancer was also tested. NSC-30049 in combination with temozolomide was administered to brain cancer cell lines, including U118, U138, U87MG, A172, and T98 cell lines (Table 6). Cells were pretreated with the indicated concentrations of NSC-30049 followed by TMZ for 120 h. After treatment, cells were processed for the determination of viability by cell proliferation assay (MTT assay). The data from the graph was used for the determination of IC50, which is presented as the mean±SE of three different estimations. Increasing the concentration of NSC-30049 decreased the IC50 of temozolomide for all cell lines tested, regardless of whether they were MMR proficient or deficient.

U138 = assay: MTT assay, brain cancer cell line; type: cell-based; details: 120 h, read-out: IC50 of TMZ
Experimental: as §5

T98 = assay: MTT assay, brain cancer cell line; type: cell-based; details: Homo sapiens, T98, 120 h, read-out: IC50 of TMZ
Experimental: as §5

U87MG = assay: MTT assay, brain cancer cell line; type: cell-based; details: Homo sapiens, U-87 MG, 120 h, read-out: IC50 of TMZ
Experimental: as §5

U118 = assay: MTT assay, brain cancer cell line; type: cell-based; details: 120 h, read-out: IC50 of TMZ
Experimental: as §5

[2] = NSC-30049 0 μM, 48 h, read-out: IC50 of oxaliplatin
[3] = NSC-30049 1.0 μM, 48 h, read-out: IC50 of oxaliplatin
[4] = NSC-30049 2.5 μM, 48 h, read-out: IC50 of oxaliplatin
[5] = NSC-30049 5.0 μM, 48 h, read-out: IC50 of oxaliplatin
[6] = Homo sapiens, HCT-116, 72 h, NSC-30049 0 μM, 72 h, read-out: IC50 of TMZ
[7] = Homo sapiens, HCT-116, 72 h, NSC-30049 0.5 μM, 72 h, read-out: IC50 of TMZ
[8] = Homo sapiens, HCT-116, 72 h, NSC-30049 1.0 μM, 72 h, read-out: IC50 of TMZ
[9] = Homo sapiens, HCT-116, 72 h, NSC-30049 2.5 μM, 72 h, read-out: IC50 of TMZ

O=C1[O][Pt]2([NH][C@@H]3CCCC[C@H]3[NH]2)[O]C1=O [Oxaliplatin, oxaliplatin]
IC50 (PANC1; NSC-30049 0 μM): 14500 ± 380 nM
IC50 (PANC1; NSC-30049 0.5 μM): 380 ± 60 nM
IC50 (PANC1; NSC-30049 1.0 μM): 130 ± 40 nM
IC50 (PANC1; NSC-30049 2.5 μM): 370 ± 220 nM
inhibition of growth [1]: ~65%
IC50 (LoVo; [2]): 0.75 ± 0.02 µM
IC50 (LoVo; NSC-30049 0.5 μM, 48 h, read-out: IC50 of oxaliplatin): 0.59 ± 0.04 µM
IC50 (LoVo; [3]): 0.07 ± 0.02 µM
IC50 (LoVo; [4]): 0.03 µM
IC50 (HCT-116; [2]): 1500 ± 10 nM
IC50 (HCT-116; [3]): 780 ± 20 nM
IC50 (HCT-116; [4]): 30 nM
IC50 (HCT-116; [5]): 20 nM
IC50 (HCT-116 + ch3; [2]): 5.83 ± 0.36 µM
IC50 (HCT-116 + ch3; [3]): 4.98 ± 0.17 µM
IC50 (HCT-116 + ch3; [4]): 0.91 ± 0.12 µM
IC50 (HCT-116 + ch3; [5]): 0.03 µM
IC50 (HT29; [2]): 0.92 ± 0.03 µM
IC50 (HT29; [3]): 0.82 ± 0.06 µM
IC50 (HT29; [4]): 0.59 ± 0.02 µM
IC50 (HT29; [5]): 0.03 µM
inhibition of growth (colon cancer stem cells): ~40%
IC50 (BxPC3; NSC-30049 0 μM): 2000 ± 400 nM
IC50 (BxPC3; NSC-30049 0.5 μM): 710 ± 390 nM
IC50 (BxPC3; NSC-30049 1.0 μM): 330 ± 60 nM
IC50 (BxPC3; NSC-30049 2.5 μM): 10 nM

Cn1nnc2c(C(N)=O)ncn2c1=O [TMZ, Temozolomide]
IC50 (SW480; NSC-30049 0 μM): 377 ± 12 µM
IC50 (SW480; NSC-30049 0.5 μM): 325 ± 18 µM
IC50 (SW480; NSC-30049 1.0 μM): 167 ± 49 µM
IC50 (SW480; NSC-30049 2.5 μM): 0.47 ± 0.03 µM
IC50 (LoVo; Homo sapiens, 72 h, NSC-30049 0 μM, 72 h, read-out: IC50 of TMZ): 1106 ± 0.02 µM
IC50 (LoVo; Homo sapiens, 72 h, NSC-30049 0.5 μM, 72 h, read-out: IC50 of TMZ): 366 ± 6 µM
IC50 (LoVo; Homo sapiens, 72 h, NSC-30049 1.0 μM, 72 h, read-out: IC50 of TMZ): 8 ± 0.8 µM
IC50 (LoVo; Homo sapiens, 72 h, NSC-30049 2.5 μM, 72 h, read-out: IC50 of TMZ): 3.82 ± 0.09 µM
IC50 (HCT-116; [6]): 620000 ± 11000 nM
IC50 (HCT-116; [7]): 361000 ± 10000 nM
IC50 (HCT-116; [8]): 160000 ± 63000 nM
IC50 (HCT-116; [9]): 3810 ± 110 nM
IC50 (HCT-116 + ch3; [6]): 236 ± 23 µM
IC50 (HCT-116 + ch3; [7]): 206 ± 13 µM
IC50 (HCT-116 + ch3; [8]): 153 ± 10 µM
IC50 (HCT-116 + ch3; [9]): 0.73 ± 0.04 µM
IC50 (HCT-116 + ch3; Homo sapiens, HCT-116, 72 h, NSC-30049 5.0 μM, 72 h, read-out: IC50 of TMZ): 0.35 ± 0.01 µM
IC50 (HT29; Homo sapiens, HT-29, 72 h, NSC-30049 0 μM, 72 h, read-out: IC50 of TMZ): 1450 ± 144 µM
IC50 (HT29; Homo sapiens, HT-29, 72 h, NSC-30049 0.5 μM, 72 h, read-out: IC50 of TMZ): 1270 ± 60 µM
IC50 (HT29; Homo sapiens, HT-29, 72 h, NSC-30049 1.0 μM, 72 h, read-out: IC50 of TMZ): 815 ± 93 µM
IC50 (HT29; Homo sapiens, HT-29, 72 h, NSC-30049 2.5 μM, 72 h, read-out: IC50 of TMZ): 248 ± 59 µM
IC50 (HT29; Homo sapiens, HT-29, 72 h, NSC-30049 5.0 μM, 72 h, read-out: IC50 of TMZ): 5.33 ± 0.07 µM
IC50 (A172; NSC-30049 0 μM): 154 ± 6.8 µM
IC50 (A172; NSC-30049 1.0 μM): 89.5 ± 7.8 µM
IC50 (A172; NSC-30049 2.5 μM): 82.9 ± 5.1 µM
IC50 (A172; NSC-30049 5.0 μM): 75.1 ± 5.2 µM
IC50 (U138; NSC-30049 0 μM): 432 ± 19.1 µM
IC50 (U138; NSC-30049 1.0 μM): 278 ± 14.6 µM
IC50 (U138; NSC-30049 2.5 μM): 3.8 ± 0.4 µM
IC50 (U138; NSC-30049 5.0 μM): 0.8 ± 0.02 µM
IC50 (T98; NSC-30049 0 μM): 554 ± 53.9 µM
IC50 (T98; NSC-30049 1.0 μM): 511 ± 14.7 µM
IC50 (T98; NSC-30049 2.5 μM): 382 ± 5.9 µM
IC50 (T98; NSC-30049 5.0 μM): 245 ± 8.7 µM
IC50 (U87MG; NSC-30049 0 μM): 493 ± 83.9 µM
IC50 (U87MG; NSC-30049 1.0 μM): 33 ± 5.1 µM
IC50 (U87MG; NSC-30049 2.5 μM): 19.9 ± 10.5 µM
IC50 (U87MG; NSC-30049 5.0 μM): 13.7 ± 8.5 µM
IC50 (U118; NSC-30049 0 μM): 136 ± 3.7 µM
IC50 (U118; NSC-30049 1.0 μM): 78.4 ± 1.3 µM
IC50 (U118; NSC-30049 2.5 μM): 14.5 ± 2.5 µM
IC50 (U118; NSC-30049 5.0 μM): 1.1 ± 3 µM
